Test results published in US20130209515A1, “ANTI-INFECTIVE AND IMMUNOMODULATORY COMPOUNDS” (priority 2005, published 2013).

Experiments:
[1] = tested on: PA14; assay: Neonatal mouse lung infection model, lung histopathology; format: in vivo, mice
Experimental: We next assessed the morphological dynamics of PA14 infection in the presence of 2AA in a neonatal mouse lung infection model (Tang et al., Infection & Immunity 64:37-43, 1996), which is relevant to CF. A minimum inoculum of 1.5×10^5 PA14 cells/animal is 100% lethal in this model. Mice were treated with 2AA 4 days pre-infection, sacrificed at 24, 48, and 72 hr post-infection, and lung histopathology was assessed and compared to that of controls. PA14 infection alone produces rapidly developing inflammation that by 24 hr presents with red hepatization and development of lobular pneumonia. By 48 hours, the lung pathology includes most of the parenchyma with extensive formation of bacteria-filled necrotic foci (FIG. 12B). These observations are also consistent with our previous mortality studies using this lung model that indicate 100% mortality by 60 hr.

[2] = tested on: P. aeruginosa; assay: P. aeruginosa growth kinetics (spectrophotometric analysis at 600 nm); format: cell-based, Pseudomonas aeruginosa; conditions: 2 mM compound, followed over 26 hours at 600 nm (FIG. 4)
From the text: P. aeruginosa strains include wild-type (PA14, see Rahme et al., Science 268:1899-1902, 1995); a PA14 mvfR mutant (Cao et al., Proc. Natl. Acad. Sci. USA 98:14613-14618, 2001); a pqsE deletion mutant, generated via pEX18Ap allelic replacement by using sucrose selection (Hoang et al., Gene 212:77-86, 1998), resulting in a 570-bp nonpolar deletion covering 65% of the sequence (Déziel et al. PNAS); and the pqsA (U479) TnphoA mutant obtained from the PA14 Transposon Insertion Mutant Database. Bacteria were grown in LB broth or on 1.5% Bacto-agar (Difco) LB plates. Freshly plated cells served as inoculum.
P. aeruginosa was grown in the presence of 2 mM of 2′-aminoacetophenone (2AA), 3′-aminoacetophenone (3AA), 4′-aminoacetophenone (4AA), or 2′-nitroacetophenone (2NA), or in the absence of any of these compounds (control). Bacterial growth was followed over 26 hours by spectrophotometric analysis at 600 nm.
Bacterial growth was also followed over 35 hours by spectrophotometric analysis at 600 nm.

[3] = tested on: P. aeruginosa PA14; assay: Mouse burn and infection (BI) model, survival; format: in vivo, mice
Experimental: Burn wound infection in mice can be established by subcutaneous or topical administration of the bacteria to the sites of the burn. […] Six-week old CD-1 male mice were used.
To induce infection, the mice were placed under general anesthesia via intraperitonial injection of 40 mg/kg Pentobarbital, the ventral surface was shaved, and a central skin fold elevated was simultaneously compressed from both sides for 5 seconds using two 2×2 cm metal blocks preheated to 95-100° C., to produce a non-lethal 5-8% full thickness burn with negligible focal necrosis of the underlying muscle or damage to underlying visceral organs. IP saline was administered for fluid resuscitation for ≧5% total body surface burns: avoiding vital structures, saline was injected into the left lower quadrant of the abdominal area of the anesthetized animal post-burn. This burn procedure was followed by mid-eschar inoculation of 100 μL of bacterial suspension containing ˜5×10^5 CFU. The animals were returned to their cages and provided mouse chow and water ad libitum. Animals typically recover from the anesthesia within 20 minutes post-administration. Criteria used to evaluate anesthesia recovery are state of alertness, mobility, and reaction to surrounding stimuli. Mice were monitored twice a day for symptoms and deaths, with increased monitoring every 6-8 hours during the period of greatest potential for infection and clinical disease.
The mouse full-thickness skin thermal injury infection model was used to test if 2AA restricts P, aeruginosa virulence. This model is predictable and reproducible; clinically relevant; and can lead to MODS and mortality. Briefly, a ˜15% total burn surface area (TBSA) thermal scalding injury is produced on the abdominal skin, leaving the underlying muscle intact, and the inoculum is delivered into the scald eschar. […]

`CC(=O)c1ccccc1N` [2AA, 2′-aminoacetophenone] was tested, and the “development of lung inflammation in response to PA14 infection” value ([1]; 2AA 4 days pre-infection) was “greatly delayed rates of development of inflammation”, the lung histopathology ([1]; PA14 infection 4 days post-2AA treatment, 48 hours (FIG. 12C)) was “Slight peribronchial infiltrate of inflammatory cells is present at 48 hours but no significant interstitial involvement” and the Bacterial growth [2] was “only slightly retarded”. For the same molecule, the “protection (survival curves)” value ([3]; 10 mM solutions IV 4 days pre-BI (FIGS. 11A, 11B)) was “significantly greater”, the “time to succumb to PA14 lethality” value ([3]; 2AA injected in the scald eschar 1 hr post BI (FIG. 7)) was “significantly later” and the survival ([3]; IP 2AA injection 3 days pre-BI) was 50%. For the same molecule, the survival ([3]; IP 2AA injection 8 days pre-BI) was 50%, the mortality ([3]; IP 2AA injection up to 4 weeks pre-BI) was 50% and the mortality ([3]; IP 500 μl of 20 mM, 2 days pre-BI, controls ~90%) was 60%. For the same molecule, the “survival to PA14 infection” value ([3]; IV 100 μl of 10 mM, 4 days pre-BI) was roughly 90%, the “average survival after 5 days” value ([3]; IV tail vein 100 μl of 10 mM, four days prior to burn/infection, n=8-10, control 10% (FIG. 9)) was 50% and the “protection (survival)” value ([3]; single IP injection 500 μl of 20 mM, 6 hours pre-BI) was “no protection”.
